# Test results as given in PubChem BioAssay AID2060600 (Molecular Pharmacology Branch, DTP, NCI, 2025).
# Tested on: 996289-038-R-J1-PDC complex spheroid viability
# Assay: Anticancer human tumor 996289-038-R-J1-PDC patient-derived colon adenocarcinoma cell line growth inhibition [CLK]
# Conditions: for IC50: curve of first compound; for viability, T/C: stronger effect = lower value
# Summary of the method: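 Patient-derived tumor cells grown as complex spheroids with HUVEC endothelial cells and mesenchymal stem cells, treated with drug combinations. Concentrations descend in half-log steps from near clinical Cmax, or from 10 microM if Cmax unknown.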
# [1] = second compound 0.0316 µM, first compound 0.0316 µM
# [2] = second compound 0.0316 µM, first compound 0.1 µM
# [3] = second compound 0.1 µM, first compound 0.0316 µM
# [4] = second compound 0.1 µM, first compound 0.1 µM
# [5] = second compound 0.316 µM, first compound 0.0316 µM
# [6] = second compound 0.316 µM, first compound 0.1 µM
# [7] = second compound 1 µM, first compound 0.0316 µM
# [8] = second compound 1 µM, first compound 0.1 µM
# [9] = second compound 3.16 µM, first compound 0.0316 µM
# [10] = second compound 3.16 µM, first compound 0.1 µM
# [11] = second compound 10 µM, first compound 0.0316 µM
# [12] = second compound 10 µM, first compound 0.1 µM
# [13] = second compound 0.0316 µM, first compound 0.316 µM
# [14] = second compound 0.0316 µM, first compound 1 µM
# [15] = second compound 0.0316 µM, first compound 3.16 µM
# [16] = second compound 0.0316 µM, first compound 10 µM
# [17] = second compound 0.1 µM, first compound 0.316 µM
# [18] = second compound 0.1 µM, first compound 1 µM
# [19] = second compound 0.1 µM, first compound 3.16 µM
# [20] = second compound 0.1 µM, first compound 10 µM
# [21] = second compound 0.316 µM, first compound 0.316 µM
# [22] = second compound 0.316 µM, first compound 1 µM
# [23] = second compound 0.316 µM, first compound 3.16 µM
# [24] = second compound 0.316 µM, first compound 10 µM
# [25] = second compound 1 µM, first compound 0.316 µM
# [26] = second compound 1 µM, first compound 1 µM
# [27] = second compound 1 µM, first compound 3.16 µM
# [28] = second compound 1 µM, first compound 10 µM
# [29] = second compound 3.16 µM, first compound 0.316 µM
# [30] = second compound 3.16 µM, first compound 1 µM
# [31] = second compound 3.16 µM, first compound 3.16 µM
# [32] = second compound 3.16 µM, first compound 10 µM
# [33] = second compound 10 µM, first compound 0.316 µM
# [34] = second compound 10 µM, first compound 1 µM
# [35] = second compound 10 µM, first compound 3.16 µM
# [36] = second compound 10 µM, first compound 10 µM
# 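Note: spheroids exposed to the agents for 7 days before readout.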
smiles,measurement,setting,value
Cn1ncnc1[C@H]1c2n[nH]c(=O)c3cc(F)cc(c23)N[C@@H]1c1ccc(F)cc1 + CN1CCN(c2cc(C(=O)Nc3cc4cc(-c5cnn(C)c5)ccc4cn3)ccn2)CC1,IC50,second compound 0.0316 µM,> 100 nM
same,IC50,second compound 0.1 µM,> 100 nM
same,IC50,second compound 0.316 µM,> 100 nM
same,IC50,second compound 1 µM,< 0.316 nM
same,IC50,second compound 3.16 µM,< 0.316 nM
same,IC50,second compound 10 µM,< 0.316 nM
same,"viability, T/C","second compound 0.0316 µM, first compound 0.000316 µM",104%
same,"viability, T/C","second compound 0.0316 µM, first compound 0.001 µM",102%
same,"viability, T/C","second compound 0.0316 µM, first compound 0.00316 µM",102%
same,"viability, T/C","second compound 0.0316 µM, first compound 0.01 µM",107%
same,"viability, T/C",[1],101%
same,"viability, T/C",[2],80.4%
same,"viability, T/C","second compound 0.1 µM, first compound 0.000316 µM",88.8%
same,"viability, T/C","second compound 0.1 µM, first compound 0.001 µM",96.9%
same,"viability, T/C","second compound 0.1 µM, first compound 0.00316 µM",87.6%
same,"viability, T/C","second compound 0.1 µM, first compound 0.01 µM",97%
same,"viability, T/C",[3],95.5%
same,"viability, T/C",[4],86.8%
same,"viability, T/C","second compound 0.316 µM, first compound 0.000316 µM",72.3%
same,"viability, T/C","second compound 0.316 µM, first compound 0.001 µM",70.2%
same,"viability, T/C","second compound 0.316 µM, first compound 0.00316 µM",74.6%
same,"viability, T/C","second compound 0.316 µM, first compound 0.01 µM",71.6%
same,"viability, T/C",[5],67.9%
same,"viability, T/C",[6],53%
same,"viability, T/C","second compound 1 µM, first compound 0.000316 µM",5.01%
same,"viability, T/C","second compound 1 µM, first compound 0.001 µM",4.06%
same,"viability, T/C","second compound 1 µM, first compound 0.00316 µM",4.98%
same,"viability, T/C","second compound 1 µM, first compound 0.01 µM",6.96%
same,"viability, T/C",[7],6.27%
same,"viability, T/C",[8],4.4%
same,"viability, T/C","second compound 3.16 µM, first compound 0.000316 µM",0.64%
same,"viability, T/C","second compound 3.16 µM, first compound 0.001 µM",0.72%
same,"viability, T/C","second compound 3.16 µM, first compound 0.00316 µM",1.05%
same,"viability, T/C","second compound 3.16 µM, first compound 0.01 µM",0.84%
same,"viability, T/C",[9],0.71%
same,"viability, T/C",[10],1.35%
same,"viability, T/C","second compound 10 µM, first compound 0.000316 µM",0.97%
same,"viability, T/C","second compound 10 µM, first compound 0.001 µM",0.51%
same,"viability, T/C","second compound 10 µM, first compound 0.00316 µM",1.37%
same,"viability, T/C","second compound 10 µM, first compound 0.01 µM",2.6%
same,"viability, T/C",[11],0.38%
same,"viability, T/C",[12],0.92%
Nc1ccn(C2OC(CO)C(O)C2(F)F)c(=O)n1 (stereo unspecified) + CN1CCN(c2cc(C(=O)Nc3cc4cc(-c5cnn(C)c5)ccc4cn3)ccn2)CC1,IC50,second compound 0.0316 µM,851 nM
same,IC50,second compound 0.1 µM,406 nM
same,IC50,second compound 0.316 µM,130 nM
same,IC50,second compound 1 µM,< 31.6 nM
same,IC50,second compound 3.16 µM,< 31.6 nM
same,IC50,second compound 10 µM,< 31.6 nM
same,"viability, T/C",[1],86.7%
same,"viability, T/C",[2],62.6%
same,"viability, T/C",[13],54.5%
same,"viability, T/C",[14],51.5%
same,"viability, T/C",[15],49.1%
same,"viability, T/C",[16],43.4%
same,"viability, T/C",[3],74.6%
same,"viability, T/C",[4],56.4%
same,"viability, T/C",[17],53.2%
same,"viability, T/C",[18],46.9%
same,"viability, T/C",[19],41.2%
same,"viability, T/C",[20],35.8%
same,"viability, T/C",[5],57.7%
same,"viability, T/C",[6],52%
same,"viability, T/C",[21],43.3%
same,"viability, T/C",[22],39.2%
same,"viability, T/C",[23],36.2%
same,"viability, T/C",[24],26%
same,"viability, T/C",[7],4.69%
same,"viability, T/C",[8],4.7%
same,"viability, T/C",[25],3.37%
same,"viability, T/C",[26],6.26%
same,"viability, T/C",[27],3.39%
same,"viability, T/C",[28],3.71%
same,"viability, T/C",[9],1.41%
same,"viability, T/C",[10],1.07%
same,"viability, T/C",[29],1.65%
same,"viability, T/C",[30],1%
same,"viability, T/C",[31],1.01%
same,"viability, T/C",[32],2.06%
same,"viability, T/C",[11],0.95%
same,"viability, T/C",[12],1.01%
same,"viability, T/C",[33],0.41%
same,"viability, T/C",[34],1.58%
same,"viability, T/C",[35],0.37%
same,"viability, T/C",[36],0.35%
O=c1[nH]cc(F)c(=O)[nH]1 + CN1CCN(c2cc(C(=O)Nc3cc4cc(-c5cnn(C)c5)ccc4cn3)ccn2)CC1,IC50,second compound 0.0316 µM,> 10000 nM
same,IC50,second compound 0.1 µM,> 10000 nM
same,IC50,second compound 0.316 µM,4880 nM
same,IC50,second compound 1 µM,< 31.6 nM
same,IC50,second compound 3.16 µM,< 31.6 nM
same,IC50,second compound 10 µM,< 31.6 nM
same,"viability, T/C",[1],100%
same,"viability, T/C",[2],91.3%
same,"viability, T/C",[13],76.4%
same,"viability, T/C",[14],74.4%
same,"viability, T/C",[15],74.2%
same,"viability, T/C",[16],71%
same,"viability, T/C",[3],101%
same,"viability, T/C",[4],94.4%
same,"viability, T/C",[17],74.2%
same,"viability, T/C",[18],65.5%
same,"viability, T/C",[19],60.8%
same,"viability, T/C",[20],58.4%
same,"viability, T/C",[5],77.1%
same,"viability, T/C",[6],68.1%
same,"viability, T/C",[21],56.8%
same,"viability, T/C",[22],56.7%
same,"viability, T/C",[23],51.7%
same,"viability, T/C",[24],47.3%
same,"viability, T/C",[7],4.52%
same,"viability, T/C",[8],5.71%
same,"viability, T/C",[25],5.87%
same,"viability, T/C",[26],6.18%
same,"viability, T/C",[27],6.47%
same,"viability, T/C",[28],7.26%
same,"viability, T/C",[9],1.22%
same,"viability, T/C",[10],0.94%
same,"viability, T/C",[29],0.86%
same,"viability, T/C",[30],1.6%
same,"viability, T/C",[31],0.83%
same,"viability, T/C",[32],0.72%
same,"viability, T/C",[11],0.56%
same,"viability, T/C",[12],0.79%
same,"viability, T/C",[33],0.98%
same,"viability, T/C",[34],1.55%
same,"viability, T/C",[35],0.45%
same,"viability, T/C",[36],0.41%
